How the values were obtained:
[1] = biological target: T1, yeast alcohol dehydrogenase (ADH) (Saccharomyces cerevisiae, UniProt P00330); assay: Evaluation of ADH-protective activity under freeze-dried condition; type: biochemical; conditions: for ADH activity after freeze-drying: freeze-dried with 1% or 3% sugar, GOL 3%
T1 construct: purchased Oriental Yeast Co., Ltd
T1 sequence (P00330 1-348): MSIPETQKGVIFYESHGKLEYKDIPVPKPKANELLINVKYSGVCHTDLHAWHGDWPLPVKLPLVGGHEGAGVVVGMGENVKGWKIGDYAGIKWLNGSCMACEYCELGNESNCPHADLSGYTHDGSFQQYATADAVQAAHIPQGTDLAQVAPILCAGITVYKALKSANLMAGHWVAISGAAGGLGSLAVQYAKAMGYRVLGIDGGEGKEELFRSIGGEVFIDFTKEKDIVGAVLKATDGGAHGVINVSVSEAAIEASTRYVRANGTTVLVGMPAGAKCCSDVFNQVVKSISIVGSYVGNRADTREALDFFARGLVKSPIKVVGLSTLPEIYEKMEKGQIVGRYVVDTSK
Description: Test samples 1 to 12 containing yeast alcohol dehydrogenase (ADH) were prepared as follows and protein-protective activity of various kinds of added sugar under freeze-dried condition was evaluated.
Yeast alcohol dehydrogenase (manufactured by Oriental Yeast Co., Ltd.) was dissolved in water at 1,000 units/mL and then diluted to 6 units/mL with TBS (manufactured by Takara Bio Inc.). 50 μL of TBS containing 2% trehalose (TRH) was added to and mixed with 50 μL of this enzyme solution and the mixture was frozen at −80° C. for 10 minutes. It was then freeze-dried for 20 hours with a freeze dryer (FLEXI-DRY, manufactured by FTS systems INC., Warminster) connected to a vacuum pump (P65D, manufactured by PHIL Sato Vac INC.), preparing freeze-dried product of enzyme with 1% TRH.
Freeze-dried product of enzyme with 3% TRH was prepared in a similar manner to the preparation method of test sample 4 except that the final concentration of trehalose was changed to 3% in the preparation method of test sample 4.
Freeze-dried product of enzyme with 1% 4TA was prepared in a similar manner to the preparation method of test sample 4 except that trehalose was changed to 4-trehalosamine (4TA) in the preparation method of test sample 4.
Freeze-dried product of enzyme with 3% 4TA was prepared in a similar manner to the preparation method of test sample 5 except that trehalose was changed to 4-trehalosamine (4TA) in the preparation method of test sample 5.
Freeze-dried product of enzyme with 1% MLT was prepared in a similar manner to the preparation method of test sample 4 except that trehalose was changed to maltose (MLT) in the preparation method of test sample 4.
Freeze-dried product of enzyme with 3% MLT was prepared in a similar manner to the preparation method of test sample 5 except that trehalose was changed to maltose (MLT) in the preparation method of test sample 5.
Freeze-dried product of enzyme with 1% SCR was prepared in a similar manner to the preparation method of test sample 4 except that trehalose was changed to sucrose (SCR) in the preparation method of test sample 4.
Freeze-dried product of enzyme with 3% SCR was prepared in a similar manner to the preparation method of test sample 5 except that trehalose was changed to sucrose (SCR) in the preparation method of test sample 5.
Freeze-dried product of enzyme with 3% GOL was prepared in a similar manner to the preparation method of test sample 5 except that trehalose was changed to glycerol (GOL) in the preparation method of test sample 5.
The enzyme solution from test sample 1, the freeze-thaw product of enzyme from test sample 2, and the freeze-dried products from test samples 3 to 12 were each diluted to 0.012 units/mL with TBS. 0.5 mM β-NAD^+ (manufactured by Oriental Yeast Co., Ltd.) and 0.62 M ethanol were added, and enzyme reaction was left to take place at room temperature for 1 hour. After the reaction, absorbance at 340 nm was measured with a microplate reader (Cytation5, manufactured by Bio Tek Instruments) (n=3, mean±S.D.). The value of this absorbance at 340 nm was divided by the value of absorbance at 340 nm for the enzyme solution of test sample 1 (control) to determine ADH activity.

[2] = tested on: baker's yeast (Saccharomyces cerevisiae F-7); assay: Evaluation of baker's yeast protective activity in freeze-dried condition; type: cell-based; conditions: for Numbers of live bacterial cells (relative numbers): baker's yeast freeze-dried with 6% aqueous solution (final concentration 3%), test sample 3 (FD) = 1
Description: Using test samples 1 to 8 containing baker's yeast prepared in the following manner, microorganism-protective activity with various kinds of sugar in a freeze-dried condition was evaluated.
Frozen stock of baker's yeast (Saccharomyces cerevisiae F-7, owned by the Microbial Chemistry Research Foundation) was inoculated in 10 mL of YPD culture fluid (1% yeast extract, 2% polypeptone, 2% glucose) and cultured at 27° C. for 2 days while shaking it at 220 rpm. After culture, it was centrifuged at 1,000×g for 5 minutes, washed once with 10 mL of water, and then suspended in 10 mL of water, thus obtaining yeast suspension. 50 μL of water was added to and mixed with 50 μL of this yeast suspension and the mixture was left to stand at 4° C. for 12 hours, preparing control (NF).
After yeast suspension was prepared in a similar manner to test sample 1, 50 µL of 6% aqueous solution of trehalose was added to and mixed with 50 μL of the yeast suspension, and the mixture was frozen at −80° C. for 1 hour. It was then freeze-dried for 12 hours with a freeze dryer (FLEXI-DRY, manufactured by FTS systems INC., Warminster) connected to a vacuum pump (P65D, manufactured by PHIL Sato Vac INC.), preparing freeze-dried product (TRH) of yeast with TRH.
Freeze-dried product (4TA) of yeast with 4TA was obtained in a similar manner to the preparation method of test sample 4 except that trehalose was changed to 4-trehalosamine (4TA) in the preparation method of test sample 4.
Freeze-dried product (MLT) of yeast with MLT was obtained in a similar manner to the preparation method of test sample 4 except that trehalose was changed to maltose (MLT) in the preparation method of test sample 4.
Freeze-dried product (SCR) of yeast with SCR was obtained in a similar manner to the preparation method of test sample 4 except that trehalose was changed to sucrose (SCR) in the preparation method of test sample 4.
Freeze-dried product (GOL) of yeast with GOL was obtained in a similar manner to the preparation method of test sample 4 except that trehalose was changed to glycerol (GOL) in the preparation method of test sample 4.
For test samples 1 and 2, serial suspensions were made by diluting them to 1/10 with saline. 100 μL of water was added to each of the freeze-dried products of test samples 3 to 8 and diluted to 1/10 with saline to make their serial suspensions. 60 μL of water was added to 30 μL of each diluted solution.
In a 6-well microplate, 2% Agar-YPD was prepared at 3 mL/well, and 90 μL of each diluted solution was inoculated on the 2% Agar-YPD and cultured at 30° C. for two days.
Wells in which the number of colonies was measurable were selected and the numbers (relative numbers) of live bacterial cells per well on test samples 1, 2, and 4 to 8 when the number of live bacterial cells per well on test sample 3 (FD) was “1” were calculated in consideration of the dilution concentrations of those test samples.

ADH activity after freeze-drying [1]	SMILES	Numbers of live bacterial cells (relative numbers) [2]	ADH protection effect compared to other sugars ([1]; freeze-dried)	protective effect on microorganisms, comparison ([2]; baker's yeast, freeze-dried)
good activity was maintained	OC[C@H]1O[C@H](O[C@H]2[C@H](O)[C@@H](O)C(O)O[C@@H]2CO)[C@H](O)[C@@H](O)[C@@H]1O (mixture of isomers) [maltose]	10	–	–
enzyme activity significantly dropped	OCC(O)CO [GOL, glycerol]	0	–	–
good activity was maintained	OC[C@H]1O[C@@](CO)(O[C@H]2O[C@H](CO)[C@@H](O)[C@H](O)[C@H]2O)[C@@H](O)[C@@H]1O [sucrose]	10	–	–

SMILES	ADH activity after freeze-drying [1]	Numbers of live bacterial cells (relative numbers) [2]	ADH protection effect compared to other sugars ([1]; freeze-dried)	protective effect on microorganisms, comparison ([2]; baker's yeast, freeze-dried)
N[C@H]1[C@H](O)[C@@H](O)[C@@H](O[C@H]2O[C@H](CO)[C@@H](O)[C@H](O)[C@H]2O)O[C@@H]1CO [4-trehalosamine]	good activity was maintained	100	high compared to the other sugars	stronger than when maltose or sucrose was added
OC[C@H]1O[C@H](O[C@H]2O[C@H](CO)[C@@H](O)[C@H](O)[C@H]2O)[C@H](O)[C@@H](O)[C@@H]1O [trehalose, reference compound]	good activity was maintained	100	–	–

Reference: patent US20250002954A1, “Novel Compound, Use Thereof, and Method for Producing Same, and Compound-Containing Composition, Method for Producing 4-Trehalosamine, and Microorganism” (Microbial Chemistry Research Foundation, priority 2021, published 2025)
